Experimental findings from patent publication US9610232B2, “Use of sphinganine to improve the visual appearance of skin and hair” (EVONIK DEGUSSA GMBH, priority 2011, dated 2017) are described below.

The structures appear in SMILES notation.

For experiment [1], the system named is sebum production of the skin. Nature of the experiment: Human sebum study: skin sebum on the forehead measured with Sebumeter SM 815. Conditions: lotion with 0.1% sphinganine, topical to forehead twice daily, 28 days (T4 vs T0); compared to the starting value and to the vehicle group; 14 female subjects. It is filed as in vivo. As for the experimental part: The panel comprised 30 female subjects aged 21-45 years, with 14 subjects applying a lotion containing 0.1% sphinganine and 16 subjects applying a lotion without sphinganine (vehicle control).
The application phase comprised 28 days, with application taking place twice daily (morning and evening) to the forehead.
The skin sebum was measured using a Sebumeter SM 815® from Courage+Khazaka electronic GmbH, Cologne, Germany. The measurements were taken in the middle of the forehead in the region of the glabella lines. The average value calculated from the individual values of three repeat measurements was registered. On the evening before each measurement no formulation was applied. Three hours before the measurement, the forehead was cleaned using a wipe (babylove sensitive wipes, dm-drogerie markt, Karlsruhe, Germany). The measurements were carried out in each case at a time of day defined individually for each subject in the period between 12:00 and 14:30 hours. The sebum value at time point T0 before the application phase and T4 after 28 days was determined.

In another experiment the test system is hair grease production. The experiment is described as follows: Human scalp health study: hair tonic applied to scalp, greasiness by subjective evaluation and Sebutape method. The format is in vivo. Conditions: hair tonic with 0.2% sphinganine, 3 mL to scalp twice daily, 4 months; vehicle control; 16 subjects per group. The method, then:
The panel comprised 32 subjects (mixed male/female, minimum age 30, with a tendency for greasy scalp/greasy hair), with 16 subjects in each case applying a hair tonic with 0.2% sphinganine or without sphinganine (vehicle control). The application phase comprised 4 months, with the hair tonic being applied to the scalp twice daily (morning and evening) with the help of a pipette with a defined volume of 3 mL, and gently massaged in using the hands. The test parameters included the shine of the hair and the greasiness of the scalp. The greasiness of the scalp is carried out firstly by means of a subjective evaluation (self and expert estimation), and secondly by means of a “Sebutape” method in accordance with manufacturers instructions. Time points for carrying out the measurements were before the start of application, after two months and after four months.

Another experiment deals with stem cell markers. The experiment is described as follows: Gene expression studies in cell cultures. It is filed as cell-based. An excerpt: A further subject matter of the present invention is consequently the cosmetic use of sphinganine for modulating stem cell markers.

`CCCCCCCCCCCCCCC[C@@H](O)[C@@H](N)CO` [sphinganine]: the sebum production result in experiment [1] was “statistically significant reduction in sebum production”. Also, in the experiment on hair grease production, the hair grease production result is “significant reduction in hair grease production”. Besides, the “expression of stem cell markers” value with stem cell markers is given as “beneficially modulated the expression of so-called stem cell markers”.
